The record followed here is PubChem BioAssay AID256 (DTP/NCI, 2004).

The test concerns CD2F1 mice, L1210 leukemia ip, survival T/C. The experiment in a line: NCI In Vivo Anticancer Drug Screen. Data for tumor model L1210 Leukemia (intraperitoneal) in CD2F1 (CDF1) mice. The note with it: higher = longer survival. In short, it runs like this:
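Transplantable tumor in mice; compound-treated vs vehicle-treated groups. Read-out = treated/control ratio of the measured endpoint.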

Where [1] appears, read: endpoint: mean survival time, dose: 100.0 mg/kg/injection, schedule: Q04DX003 (ip), vehicle: saline with Tween-80.
The mark [2] stands for this setting: endpoint: mean survival time, dose: 200.0 mg/kg/injection, schedule: Q04DX003 (ip), vehicle: saline with Tween-80.
Setting [3] is: endpoint: mean survival time, dose: 400.0 mg/kg/injection, schedule: Q04DX003 (ip), vehicle: saline with Tween-80.
[4] abbreviates: endpoint: mean survival time, dose: 100.0 mg/kg/injection, schedule: Q01DX009 (ip), vehicle: saline with Tween-80.
Setting [5] is: endpoint: median survival time, dose: 12.5 mg/kg/injection, schedule: Q01DX005 (ip), vehicle: distilled water + Tween-80.
The mark [6] stands for this setting: endpoint: median survival time, dose: 25.0 mg/kg/injection, schedule: Q01DX005 (ip), vehicle: distilled water + Tween-80.
[7] abbreviates: endpoint: median survival time, dose: 50.0 mg/kg/injection, schedule: Q01DX005 (ip), vehicle: distilled water + Tween-80.
[8] abbreviates: endpoint: median survival time, dose: 100.0 mg/kg/injection, schedule: Q01DX005 (ip), vehicle: distilled water + Tween-80.
Setting [9] is: endpoint: median survival time, dose: 200.0 mg/kg/injection, schedule: Q01DX005 (ip), vehicle: distilled water + Tween-80.
[10] abbreviates: endpoint: mean survival time, dose: 50.0 mg/kg/injection, schedule: Q01DX001 (ip), vehicle: carboxymethylcellulose (CMC).
Setting [11] is: endpoint: mean survival time, dose: 100.0 mg/kg/injection, schedule: Q04DX002 (ip), vehicle: saline with Tween-80.
The mark [12] stands for this setting: endpoint: mean survival time, dose: 200.0 mg/kg/injection, schedule: Q04DX002 (ip), vehicle: saline with Tween-80.
The mark [13] stands for this setting: endpoint: mean survival time, dose: 400.0 mg/kg/injection, schedule: Q04DX002 (ip), vehicle: saline with Tween-80.
[14] abbreviates: endpoint: mean survival time, dose: 100.0 mg/kg/injection, schedule: Q01DX001 (ip), vehicle: saline with Tween-80.

Toxic doses and inconclusive results are not listed.

As to `COC(=O)CC(NC(=O)C(F)(F)F)C(=O)OC` (configuration not stated), the T/C by setting is: (endpoint: mean survival time, dose: 100.0 mg/kg/injection, schedule: Q01DX001 (ip), vehicle: saline) 108 % of control; (endpoint: mean survival time, dose: 100.0 mg/kg/injection, schedule: Q01DX009 (ip), vehicle: saline) 94 % of control; under setting [1], 97 % of control; (endpoint: mean survival time, dose: 200.0 mg/kg/injection, schedule: Q01DX001 (ip), vehicle: saline) 104 % of control; (endpoint: mean survival time, dose: 200.0 mg/kg/injection, schedule: Q01DX009 (ip), vehicle: saline) 94 % of control; under setting [2], 97 % of control. Further, the T/C is, setting by setting: (endpoint: mean survival time, dose: 400.0 mg/kg/injection, schedule: Q01DX001 (ip), vehicle: saline) 98 % of control; (endpoint: mean survival time, dose: 400.0 mg/kg/injection, schedule: Q01DX009 (ip), vehicle: saline) 100 % of control; under setting [3], 103 % of control.

Take `CC(=O)c1cc2ccccc2c2ccccc12`: the T/C (endpoint: mean survival time, dose: 50.0 mg/kg/injection, schedule: Q01DX009 (ip), vehicle: saline with Tween-80) was 89 % of control; the T/C under setting [4] was 97 % of control; the T/C (endpoint: mean survival time, dose: 200.0 mg/kg/injection, schedule: Q01DX009 (ip), vehicle: saline with Tween-80) is 101 % of control.

In the case of `O=C1C2C=CC=CC1C1C=CC=CC21` (configuration not stated), the T/C reads like this: (endpoint: median survival time, dose: 50.0 mg/kg/injection, schedule: Q04DX002 (ip), vehicle: saline with Tween-80) 112 % of control; (endpoint: median survival time, dose: 100.0 mg/kg/injection, schedule: Q04DX002 (ip), vehicle: saline with Tween-80) 100 % of control; (endpoint: median survival time, dose: 200.0 mg/kg/injection, schedule: Q04DX002 (ip), vehicle: saline with Tween-80) 100 % of control; (endpoint: median survival time, dose: 400.0 mg/kg/injection, schedule: Q04DX002 (ip), vehicle: saline with Tween-80) 100 % of control.

As for `O=c1nc(NCC23CC4CC(CC(C4)C2)C3)ccn1C1OC(CO)C(O)C1O` (configuration not stated), the T/C is 100 % of control under setting [5]; 101 % of control under setting [6]; 101 % of control under setting [7]; 94 % of control under setting [8]; 91 % of control under setting [9].

Regarding `O=C(CN1CC1)NCCCCCCCNC(=O)CN1CC1`, the T/C reads like this: (endpoint: mean survival time, dose: 14.6 mg/kg/injection, schedule: Q01DX001 (ip), vehicle: carboxymethylcellulose (CMC)) 158 % of control; under setting [10], 150 % of control.

On to `O=C(N/N=C/c1ccc(O)cc1)c1ccncc1`, for which the T/C runs as follows: (endpoint: mean survival time, dose: 50.0 mg/kg/injection, schedule: Q04DX002 (ip), vehicle: saline with Tween-80) 95 % of control; under setting [11], 91 % of control; under setting [12], 100 % of control; under setting [13], 88 % of control.

`O=C(Cl)CCc1cc(Cl)no1`: the T/C runs as follows: (endpoint: mean survival time, dose: 25.0 mg/kg/injection, schedule: Q04DX003 (ip), vehicle: olive oil, sesame oil, peanut oil) 96 % of control; (endpoint: mean survival time, dose: 50.0 mg/kg/injection, schedule: Q04DX003 (ip), vehicle: olive oil, sesame oil, peanut oil) 96 % of control; (endpoint: mean survival time, dose: 100.0 mg/kg/injection, schedule: Q04DX003 (ip), vehicle: olive oil, sesame oil, peanut oil) 103 % of control; (endpoint: mean survival time, dose: 200.0 mg/kg/injection, schedule: Q04DX003 (ip), vehicle: olive oil, sesame oil, peanut oil) 94 % of control; (endpoint: mean survival time, dose: 400.0 mg/kg/injection, schedule: Q04DX003 (ip), vehicle: olive oil, sesame oil, peanut oil) 103 % of control.

For the molecule `O=c1nc(N2CCCCCC2)ccn1C1OC(CO)C(O)C1O` (configuration not stated), the T/C by setting is: under setting [5], 101 % of control; under setting [6], 107 % of control; under setting [7], 98 % of control; under setting [8], 104 % of control; under setting [9], 106 % of control.

Consider `O=C([O][Sb]([O]C(=O)C(Cl)(Cl)Cl)([c]1ccccc1)([c]1ccccc1)[c]1ccccc1)C(Cl)(Cl)Cl`, for which the T/C runs as follows: under setting [1], 100 % of control; under setting [2], 93 % of control; under setting [3], 93 % of control.

Turning to `CCN1/C(=C/C=C/C=C/c2sc3ccccc3[n+]2CC)Sc2ccccc21`, the T/C is, setting by setting: (endpoint: mean survival time, dose: 0.08 mg/kg/injection, schedule: Q01DX009 (ip), vehicle: saline) 109 % of control; (endpoint: mean survival time, dose: 0.09 mg/kg/injection, schedule: Q01DX009 (ip), vehicle: saline) 117 % of control; (endpoint: mean survival time, dose: 0.12 mg/kg/injection, schedule: Q01DX009 (ip), vehicle: saline) 114 % of control; (endpoint: mean survival time, dose: 0.16 mg/kg/injection, schedule: Q04DX003 (ip), vehicle: saline) 105 % of control; (endpoint: mean survival time, dose: 0.19 mg/kg/injection, schedule: Q01DX009 (ip), vehicle: saline) 121 % of control; (endpoint: mean survival time, dose: 0.25 mg/kg/injection, schedule: Q04DX003 (ip), vehicle: saline) 112 % of control. The T/C reads like this: (endpoint: mean survival time, dose: 0.28 mg/kg/injection, schedule: Q01DX009 (ip), vehicle: saline) 114 % of control; (endpoint: mean survival time, dose: 0.33 mg/kg/injection, schedule: Q04DX002 (ip), vehicle: saline) 101 % of control; (endpoint: mean survival time, dose: 0.38 mg/kg/injection, schedule: Q04DX003 (ip), vehicle: saline) 108 % of control; (endpoint: mean survival time, dose: 0.42 mg/kg/injection, schedule: Q01DX009 (ip), vehicle: saline) 122 % of control; (endpoint: mean survival time, dose: 0.5 mg/kg/injection, schedule: Q04DX002 (ip), vehicle: saline) 112 % of control; (endpoint: mean survival time, dose: 0.57 mg/kg/injection, schedule: Q04DX003 (ip), vehicle: saline) 118 % of control. Also, the T/C is, setting by setting: (endpoint: mean survival time, dose: 0.66 mg/kg/injection, schedule: Q01DX001 (ip), vehicle: saline) 120 % of control; (endpoint: mean survival time, dose: 0.76 mg/kg/injection, schedule: Q04DX002 (ip), vehicle: saline) 106 % of control; (endpoint: mean survival time, dose: 0.85 mg/kg/injection, schedule: Q04DX003 (ip), vehicle: saline) 112 % of control; (endpoint: mean survival time, dose: 0.99 mg/kg/injection, schedule: Q01DX001 (ip), vehicle: saline) 118 % of control; (endpoint: mean survival time, dose: 1.1 mg/kg/injection, schedule: Q04DX002 (ip), vehicle: saline) 114 % of control; (endpoint: mean survival time, dose: 1.5 mg/kg/injection, schedule: Q01DX001 (ip), vehicle: saline) 100 % of control. The T/C reads like this: (endpoint: mean survival time, dose: 1.7 mg/kg/injection, schedule: Q04DX002 (ip), vehicle: saline) 97 % of control; (endpoint: mean survival time, dose: 2.2 mg/kg/injection, schedule: Q01DX001 (ip), vehicle: saline) 114 % of control; (endpoint: mean survival time, dose: 3.3 mg/kg/injection, schedule: Q01DX001 (ip), vehicle: saline) 114 % of control.

With `CCOC12c3c4cccc3Oc3cccc(c31)S(=O)(=O)c1cccc(c12)O4`, the T/C under setting [14] is 89 % of control and the T/C (endpoint: mean survival time, dose: 200.0 mg/kg/injection, schedule: Q01DX001 (ip), vehicle: saline with Tween-80) was 89 % of control.

For the molecule `O=C1/C(=C/c2ccc(Cl)cc2Cl)CCC/C1=C\c1ccc(Cl)cc1Cl`, the T/C under setting [4] is 87 % of control.

In the case of `CNC(C)C(O)c1ccc(O)cc1` (configuration not stated), the T/C by setting is: under setting [10], 112 % of control; (endpoint: mean survival time, dose: 100.0 mg/kg/injection, schedule: Q01DX001 (ip), vehicle: carboxymethylcellulose (CMC)) 108 % of control; (endpoint: mean survival time, dose: 200.0 mg/kg/injection, schedule: Q01DX001 (ip), vehicle: carboxymethylcellulose (CMC)) 108 % of control; (endpoint: mean survival time, dose: 400.0 mg/kg/injection, schedule: Q01DX001 (ip), vehicle: carboxymethylcellulose (CMC)) 104 % of control.

On to `O=C1NC(c2ccccc2)C2/C=C\CCCCC12` (configuration not stated), for which the T/C was 93 % of control (endpoint: mean survival time, dose: 75.0 mg/kg/injection, schedule: Q04DX002 (ip), vehicle: saline with Tween-80); 96 % of control (endpoint: mean survival time, dose: 150.0 mg/kg/injection, schedule: Q04DX002 (ip), vehicle: saline with Tween-80); 93 % of control (endpoint: mean survival time, dose: 300.0 mg/kg/injection, schedule: Q04DX002 (ip), vehicle: saline with Tween-80).

`Clc1ccc(SSc2ccc(Cl)cc2Cl)c(Cl)c1`: the T/C by setting is: under setting [11], 90 % of control; under setting [12], 104 % of control; under setting [13], 95 % of control.

Take `CC(=O)c1ccc(N=C=O)cc1`: the T/C reads like this: (endpoint: mean survival time, dose: 25.0 mg/kg/injection, schedule: Q01DX001 (ip), vehicle: saline with Tween-80) 100 % of control; (endpoint: mean survival time, dose: 50.0 mg/kg/injection, schedule: Q01DX001 (ip), vehicle: saline with Tween-80) 88 % of control; under setting [14], 92 % of control.
